The record followed here is patent publication US6239125A, “Azetidinone derivatives for the treatment of HCMV infections” (Boehringer Ingelheim (Canada) Ltd., priority 1998, dated 2001).

Where a name gives a salt, the structure may show the parent alone. Read-outs that look alike come from different tables or passages of the source. Non-standard residues stand in square brackets, D forms with d. Residues, ends and D or L forms follow the SMILES beside them. Tyr(3-NO2) = N[C@@H](Cc1ccc(O)c([N+](=O)[O-])c1)C(=O)O; 2Abz = Nc1ccccc1C(=O)O

For series [1], the target named is T1, HCMV No protease (Human cytomegalovirus, UniProt P16753). The experiment in a line: HCMV No Protease Assay (fluorogenic substrate, IC50). The class given is biochemical. To be noted: HCMV No protease 100 nM, substrate 5 μM, 2.5 h at 30°, pH 8; Table 1 and Table 2. The protocol:
This particular assay determines the ability of a test compound to inhibit the activity (IC50) of HCMV protease. More specifically, in the assay described herein, the inhibitory activity of the test compound is evaluated on the basis of its ability to interfere with the HCMV No protease cleavage of a fluorogenic peptide substrate which in turn is based on the maturation cleavage site of the enzyme.
1. HCMV No Protease Assay
Material & Methods: Fluorescence measurements were recorded on a Perkin-Elmer LS-50B spectrofluorimeter equipped with a plate reader accessory. UV measurements were recorded on a Thermomax® microplate reader from Molecular Devices Corporation, Menlo Park, Calif., USA.
The fluorescence increase upon cleavage of the Ala-Ser amide bond was monitored using excitation λ=312 nm (slit 2.5 nm) and emission λ=415 nm ([…]). A protocol adaptable to a 96-well plate format was designed for the determination of IC50 values of inhibitors.
No quenching was required before fluorescence measurement since the total scanning time by the plate reader accessory was brief relative to the duration of the reaction. The aqueous incubation buffer contained 50 mM tris(hydroxymethyl)aminomethane-HCl pH 8, 0.5M Na2 SO4, 50 mM NaCl, 0.1 mM EDTA, 1 mM tris(2-carboxyethyl)phosphine.HCl, 3% v/v DMSO and 0.05% w/v casein. The final concentrations of HCMV No protease (expressed in terms of total monomer concentration) and substrate were 100 nM and 5 μM respectively. IC50 values were obtained through fitting of the inhibition curve to a competitive inhibition model using SAS NLIN procedure. The mode of inhibition was determined by measurements of the initial rates (in cuvettes) at various substrate concentrations in the buffer as described above.

The test system of series [2] is HCMV (strain AD169, ATCC VR-538). The experiment in a line: Plaque Reduction Assay (PRA), HCMV-infected Hs-68 cells. It is filed as cell-based, human cytomegalovirus (HCMV). The protocol:
B. Plaque Reduction Assay (PRA): Hs-68 cells (ATCC # CRL 1635) were seeded in 12-well plates at 83,000 cells/well in 1 mL of DMEM medium (Gibco Canada Inc.) supplemented with 10% fetal bovine serum (FBS, Gibco Canada Inc.). The plates were incubated for 3 days at 37° to allow the cells to reach 80-90% confluency prior to the assay.
The medium was removed from the cells by aspiration. The cells were then infected with approximately 50 PFU of HCMV (strain AD169, ATCC VR-538) in DMEM medium supplemented with 5% inactivated FBS (assay medium). (DMEM medium is commercially available and has been described by R. Dulbecco et al., Virology 1959, 8, 396.) The virus was allowed to adsorb to cells for 2 h at 37°. Following viral adsorption, the medium was removed from the wells by aspiration. The cells were then incubated with or without 1 mL of appropriate concentrations of test reagent in assay medium. Occasionally, test compounds were added 24 h post-infection. After 4 days of incubation at 37°, the medium was exchanged with fresh medium containing test compound and 4 days later the cells were fixed with 1% aqueous formaldehyde and stained with a 2% violet solution in 20% ethanol in water. Microscopic plaques were counted using a stereomicroscope. Drug effects were calculated as a percent reduction in the number of plaques in the presence of each drug concentration compared to the number observed in the absence of drug. Ganciclovir was used as a positive control in all experiments.

Series [3] can be described thus: Cytotoxic effects, tetrazolium salt (MTT) metabolic assay. To be noted: cytotoxicity, Table 1 and Table 2, read-out: TC50 (the source's name). It is filed as cell-based. How it is done:
Cytotoxic effects noted as TC50 in the following tables were determined according to the tetrazolium salt (MTT) metabolic assay, F. Denizot and F. Lang, J. Immun. Meth., 1986, 89, 271.

For series [4], the target named is T1, HCMV No protease. The experiment in a line: HCMV No Protease Assay (fluorogenic substrate, IC50). It is filed as biochemical. The conditions noted are these: fluorogenic substrate cleaved by HCMV No protease.
The mark [5] stands for this setting: Human betaherpesvirus 5, Hs68, plaque reduction, Hs-68 cells, HCMV strain AD169, Table 1 and Table 2, read-out: EC50.

T1 sequence (P16753 1-256): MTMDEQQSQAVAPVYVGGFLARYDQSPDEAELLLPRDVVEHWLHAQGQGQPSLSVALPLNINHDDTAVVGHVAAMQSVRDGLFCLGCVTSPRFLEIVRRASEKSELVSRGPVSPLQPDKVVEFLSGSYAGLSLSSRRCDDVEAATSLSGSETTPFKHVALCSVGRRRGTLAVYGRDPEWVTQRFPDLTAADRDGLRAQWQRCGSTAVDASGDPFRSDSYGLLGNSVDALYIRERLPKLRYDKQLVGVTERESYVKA

The molecule `C[C@@H](NC(=O)N1C(=O)C[C@@H]1Oc1ccc(Cl)cc1)c1ccccc1` [Entry 207] showed an IC50 against HCMV No protease [1] of 800 nM. Further, the EC50 in series [2] (setting [5]) turned out to be 250 µM. Also, in series [3], the CC50 is greater than 250 µM.

As to `C[C@@H](NC(=O)N1C(=O)C[C@@H]1Sc1ccccc1)c1ccccc1` [Entry 102], the EC50 in series [2] (setting [5]) was 40 µM. For the same molecule, the CC50 in series [3] is greater than 100 µM.

As for `C[C@@H](NC(=O)N1C(=O)C[C@@H]1[S+]([O-])c1ccccc1)c1ccccc1` (stereo partly drawn) [Entry 108], on HCMV No protease [1], half-maximal inhibition (IC50) was put at 4000 nM.

Take `C[C@@H](NC(=O)N1C(=O)C[C@@H]1SCC(=O)c1ccccc1)c1ccccc1` [Entry 112]: the IC50 at HCMV No protease [1] was 1000 nM. For the same molecule, in series [2] (setting [5]), the EC50 is greater than 37 µM. Besides, the CC50 in series [3] was greater than 37 µM.

`COC(=O)[C@H](C)O[C@H]1CC(=O)N1C(=O)N[C@H](C)c1ccccc1` [Entry 210] registered an IC50 at HCMV No protease [1] of 3800 nM.

On to `COC(=O)[C@@H](C)O[C@@H]1CC(=O)N1C(=O)N[C@H](C)c1ccccc1` [Entry 209], for which, at HCMV No protease [1], 21500 nM corresponded to half-maximal inhibition (IC50).

`C[C@@H](NC(=O)N1C(=O)C[C@H]1SC[C@H](CCS(C)(=O)=O)NC(=O)[C@@H](NC(=O)OC(C)(C)C)C(C)(C)C)c1ccccc1` [Entry 106] came in with an IC50 against HCMV No protease [1] of 620 nM. Besides, the half-maximal effective concentration (EC50) in series [2] (setting [5]) is 230 µM. The CC50 in series [3] was greater than 250 µM.

As to `O=C1C[C@H](SCc2ccccn2)N1C(=O)N[C@H](CO)c1ccccc1` [Entry 116], the half-maximal inhibitory concentration (IC50) against HCMV No protease [1] stood at 3600 nM.

As for `C[C@@H](NC(=O)N1C(=O)C[C@H]1[S+]([O-])c1ccccc1)c1ccccc1` (stereo partly drawn) [Entry 107], it took 9000 nM to reach half-maximal inhibition against HCMV No protease [1] (IC50).

On to `CC(C)C[C@@H](CO[C@@H]1CC(=O)N1C(=O)NCc1ccccc1)NC(=O)[C@@H](NC(=O)OC(C)(C)C)C(C)(C)C` [Entry 202], for which the 50% inhibitory concentration (IC50) on HCMV No protease [1] is 1300 nM. In series [2] (Human betaherpesvirus 5, AD169, Hs68), this molecule gave an EC50 of 64 µM. For the same molecule, the CC50 in series [3] is greater than 52 µM.

In turn, `C[C@@H](NC(=O)N1C(=O)C[C@@H]1SCc1ccncc1)c1ccccc1` [Entry 109] registered an IC50 against HCMV No protease [1] of 2100 nM. For the same molecule, in series [2] (setting [5]), the EC50 came to 65 µM. The CC50 in series [3] is greater than 250 µM.

`C[C@@H](NC(=O)N1C(=O)C[C@@H]1SC[C@H](CCS(C)(=O)=O)NC(=O)[C@@H](NC(=O)OC(C)(C)C)C(C)(C)C)c1ccccc1` [Entry 105] gave an IC50 against HCMV No protease [1] of 200 nM. Besides, the EC50 in series [2] (setting [5]) turned out to be 110 µM. Further, the CC50 in series [3] was greater than 250 µM.

Molecule `CC(C)C[C@@H](CO[C@H]1CC(=O)N1C(=O)N[C@H](C)c1ccccc1)NC(=O)[C@@H](NC(=O)OC(C)(C)C)C(C)(C)C` [Entry 203] had a half-maximal inhibitory concentration (IC50) on HCMV No protease [1] of 320 nM. Also, the EC50 in series [2] (setting [5]) is greater than 49 µM. Further, the CC50 in series [3] is greater than 49 µM.

On HCMV No protease [1], `CC[C@@H](NC(=O)N1C(=O)C[C@@H]1SCc1ccccn1)c1ccccc1` [Entry 114, 4(S)-{(2-pyridinylmethyl)thio}azetidin-2-one-1-carboxylic acid (1(R)-phenylpropyl)amide hydrochloride] displayed an IC50 of 1200 nM. In addition, the EC50 in series [2] (setting [5]) amounted to 80 µM. Also, the CC50 in series [3] is greater than 200 µM.

Turning to `C[C@@H](NC(=O)N1C(=O)C[C@H]1Oc1ccc(Cl)cc1)c1ccccc1` [Entry 206], 1600 nM corresponded to half-maximal inhibition on HCMV No protease [1] (IC50).

As for `C[C@@H](NC(=O)N1C(=O)C[C@@H]1SCc1ccccn1)c1ccccc1` [Entry 111], the IC50 against HCMV No protease [1] is 2500 nM. Further, the EC50 in series [2] (setting [5]) is 60 µM. The CC50 in series [3] was 180 µM.

Turning to `CN(C(=O)CC(CO[C@@H]1CC(=O)N1C(=O)NCc1ccccc1)NC(=O)CC(C)(C)C)C(C)(C)C` (stereo partly drawn) [Entry 205], the IC50 against HCMV No protease [1] stood at 5000 nM. Besides, the EC50 in series [2] (setting [5]) is greater than 250 µM. Also, the CC50 in series [3] is greater than 250 µM.

Molecule `C[C@@H](NC(=O)N1C(=O)C[C@@H]1SCCc1ccccc1)c1ccccc1` [Entry 104] had a half-inhibitory concentration (IC50) against HCMV No protease [1] of 6500 nM. In addition, the EC50 in series [2] (setting [5]) was greater than 4 µM. For the same molecule, in series [3], the CC50 was greater than 4 µM.

On HCMV No protease [1], `CC[C@@H](NC(=O)N1C(=O)C[C@@H]1SC[C@H](CC(C)C)NC(=O)[C@@H](NC(=O)CC(C)(C)C)C(C)(C)C)c1ccccc1` [Entry 115] yielded an IC50 of less than 60 nM. Also, in series [2] (setting [5]), the EC50 was greater than 250 µM. The CC50 in series [3] is greater than 250 µM.

The molecule `CC(C)C[C@@H](CS[C@H]1CC(=O)N1C(=O)NCc1ccccc1)NC(=O)[C@@H](NC(=O)OC(C)(C)C)C(C)(C)C` [Entry 101] registered an IC50 against HCMV No protease [1] of 400 nM. Besides, the EC50 in series [2] (setting [5]) is greater than 11 µM. The CC50 in series [3] was greater than 11 µM.

`C[C@@H](NC(=O)N1C(=O)C[C@@H]1SCc1cccnc1)c1ccccc1` [Entry 110] registered an IC50 at HCMV No protease [1] of 2000 nM. Further, the EC50 in series [2] (setting [5]) amounted to 96 µM. In addition, the CC50 in series [3] is greater than 200 µM.

On HCMV No protease [1], `CC(C)C[C@@H](CO[C@@H]1CC(=O)N1C(=O)NCc1ccccc1)NC(=O)OC(C)(C)C` [Entry 201] came in with an IC50 of 44000 nM.

`C[C@@H](NC(=O)N1C(=O)C[C@@H]1OCCNC(=O)c1ccc(NC(=O)CC(C)(C)C)cc1)c1ccccc1` [Entry 208] showed an IC50 against HCMV No protease [1] of 21000 nM.

Take `C[C@@H](NC(=O)N1C(=O)C[C@@H]1SCc1ccccc1)c1ccccc1` [Entry 103]: on HCMV No protease [1], the 50% inhibitory concentration (IC50) is 12400 nM. The concentration for a half-maximal effect (EC50) in series [2] (setting [5]) was greater than 5 µM. For the same molecule, the CC50 in series [3] is greater than 5 µM.

Consider `CC(C)C[C@H](NC(=O)[C@H](CCCNC(=N)N)NC(=O)[C@H](CO)NC(=O)[C@H](CO)NC(=O)[C@H](C)NC(=O)[C@H](CC(N)=O)NC(=O)[C@@H](NC(=O)[C@@H](NC(=O)c1ccccc1N)C(C)C)C(C)C)C(=O)N[C@@H](Cc1ccc(O)c([N+](=O)[O-])c1)C(=O)N[C@@H](CCCNC(=N)N)C(=O)O` (H-[2Abz]VVNASSRL[Tyr(3-NO2)]R-OH), for which the “Kcat /KM” value at HCMV No protease [4] was 260 M⁻¹ s⁻¹.

As to `CC(C)C[C@@H](CO[C@@H]1CC(=O)N1C(=O)NCc1ccccc1)NC(=O)[C@@H](NC(=O)CC(C)(C)C)C(C)(C)C` [Entry 204], the concentration for half-maximal inhibition (IC50) at HCMV No protease [1] stood at 160 nM. That is a sub-micromolar value.
